Laboratory results reported in patent US11884643B2, “Substituted thiophenecarboxamides and analogues as antibacterials agents” (priority 2018, dated 2024).
Like-named read-outs stand apart in the source and are kept apart here.

How the values were obtained:
[1] = Log P by HPLC on reversed phase columns (EEC directive 79/831 Annex V.A8); assay type: physicochemical
Experimental: If more than one Log P value is available within the same method, all the values are given and separated by “+”. Calibration was done with straight-chain alkan2-ones (with 3 to 16 carbon atoms) with known Log P values (measurement of Log P values using retention times with linear interpolation between successive alkanones). Lambda-max-values were determined using UV-spectra from 200 nm to 400 nm and the peak values of the chromatographic signals.

[2] = test system: Xanthomonas campestris pv. Campestris; experiment: Xanthomonas campestris pv. Campestris in vitro cell test (bacteria growth in liquid culture); assay type: cell-based; details: 20 ppm of tested compound, 24 h of incubation
Experimental: Culture medium: LB broth medium (Luria Broth Miller) Sigma
Inoculum: bacteria suspension
Compounds to be tested were solubilized in DMSO and the solution used to prepare the required range of concentrations. The final concentration of DMSO used in the assay was ≤1%.
Inoculum was prepared from a pre-culture of bacteria grown in liquid medium and diluted to the desired optical density (OD).
Compounds were evaluated for their ability to inhibit bacteria growth in liquid culture assay. The compounds were added in the desired concentrations to culture medium containing the bacteria suspension. After 24 h of incubation, the efficacy of compounds was determined by spectrometric measurement of bacteria growth. Inhibition was determined by comparing the absorbance values in wells containing the compounds with the absorbance in control wells without compounds.

[3] = method [a]: LC-UV, acidic range, 0.1% formic acid in water and acetonitrile as eluent
[4] = reversed phase HPLC columns, method [a]: LC-UV, acidic range, 0.1% formic acid in water and acetonitrile as eluent, read-out: LogP
[5] = reversed phase HPLC columns, value given in preparation example, method letter not indicated, read-out: Log P

Structure (SMILES)	LogP [1, 3]	further results
O=C(NC1(C(=O)O)CC1)c1sc(Cl)c(Cl)c1Br [XXI.22]	2.37^[a]	
CCOC(=O)C1(NC(=O)c2sc(Cl)c(Cl)c2I)CC1 [XXI.08, ethyl 1-{[(4,5-dichloro-3-iodo-2-thienyl)carbonyl]amino}cyclopropanecarboxylate]		chromatographic logP [1, 4]: 3.39
Cc1c(C(=O)NC2(C(=O)O)CC2)sc(Cl)c1Cl [XXI.14]	2.17^[a]	
CCOC(=O)C1(NC(=O)c2sc(Cl)c(Cl)c2N)CC1 [XXVIII.01, ethyl 1-{[(3-amino-4,5-dichloro-2-thienyl)carbonyl]amino}cyclopropanecarboxylate]	2.77^[a]	Log P ([1]; value given in preparation example, method letter not indicated): 2.77
O=C1OC(c2sc(Br)c(Br)c2I)=NC12CC2 [III.05]	4.30^[a]	direct activity (inhibition of bacteria growth) [2]: no direct activity
CCOC(=O)C1(NC(=O)c2sc(Cl)c(Cl)c2Cl)CC1 [XXI.05, ethyl 1-{[(3,4,5-trichloro-2-thienyl)carbonyl]amino}cyclopropanecarboxylate]	3.41^[a]	
COC(=O)c1sc(Cl)c(Cl)c1Br [XXIIa.09]	4.11^[a]	
O=C1OC(c2sc(Cl)c(Cl)c2I)=NC12CC2 [III.09]	4.23^[a]	
O=C1OC(c2sc(Br)c(Br)c2Br)=NC12CC2 [III.06]	4.15^[a]	
CCOC(=O)C1(NC(=O)c2sc(Cl)c(Cl)c2C)CC1 [XXI.11, ethyl 1-{[(4,5-dichloro-3-methyl-2-thienyl)carbonyl]amino}cyclopropanecarboxylate]		chromatographic logP [1, 4]: 3.16; chromatographic logP [1, 5]: 3.16
O=C(NC1(C(=O)O)CC1)c1sc(Br)c(Br)c1F [XXI.03, 1-{[(4,5-dibromo-3-fluoro-2-thienyl)carbonyl]amino}cyclopropanecarboxylic acid]		chromatographic logP [1, 4]: 2.14; chromatographic logP [1, 5]: 2.15
O=C1OC(c2sc(Br)c(Br)c2Cl)=NC12CC2 [III.08]	4.08^[a]	
Cc1c(C2=NC3(CC3)C(=O)O2)sc(Br)c1Br [III.02]	4.33^[a]	direct activity (inhibition of bacteria growth) [2]: no direct activity
O=C1OC(c2sc(Br)c(Br)c2F)=NC12CC2 [III.01, 5-(4,5-dibromo-3-fluoro-2-thienyl)-6-oxa-4-azaspiro[2.4]hept-4-en-7-one]		chromatographic logP ([1]; Log P): 3.58; chromatographic logP ([1]; LogP): 3.57; direct activity (inhibition of bacteria growth) [2]: no direct activity
O=C1OC(c2sc(Cl)c(Cl)c2Br)=NC12CC2 [III.07]	4.12^[a]	
O=C1OC(c2sc(Cl)c(Cl)c2Cl)=NC12CC2 [III.03]	4.01^[a]	direct activity (inhibition of bacteria growth) [2]: no direct activity
CC(C)COC(=O)c1sc(Cl)c(Cl)c1Cl [XXIIa.13]	5.75^[a]	
CCOC(=O)C1(NC(=O)c2sc(Br)c(Br)c2F)CC1 [XXI.01, ethyl 1-{[(4,5-dibromo-3-fluoro-2-thienyl)carbonyl]amino}cyclopropanecarboxylate]		chromatographic logP [1, 4]: 3.17; chromatographic logP [1, 5]: 3.15
Cl.Nc1c(C(=O)O)sc(Cl)c1Cl [XXXa.02, 3-amino-4,5-dichlorothiophene-2-carboxylic acid hydrochloride (1:1)]	2.05^[a]	
Cc1c(C2=NC3(CC3)C(=O)O2)sc(Cl)c1Cl [III.04]	4.30^[a]	direct activity (inhibition of bacteria growth) [2]: no direct activity
O=C(O)c1sc(Cl)c(Cl)c1Br [XXIIa.06]	2.52^[a]	
